PubChem BioAssay (NCI)
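Growth conditions: 96-well plates. Treatment: test compound, 48 hours, 5 concentrations. Analysis: linear interpolation between bracketing concentrations; unreached endpoints set to highest concentration. TGI marks complete inhibition of growth.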

Columns and labels:
Test in all cases: growth of human tumour cells (NCI), 48 h
786-0 renal = system: 786-0 renal
A498 renal = system: A498 renal
A549 NSCLC = system: A549 NSCLC
BT-549 breast = system: BT-549 breast
CAKI-1 renal = system: CAKI-1 renal
COLO 205 colon = system: COLO 205 colon
DU-145 prostate = system: DU-145 prostate
EKVX NSCLC = system: EKVX NSCLC
HCC-2998 colon = system: HCC-2998 colon
HCT-116 colon = system: HCT-116 colon
HCT-15 colon = system: HCT-15 colon
HL-60(TB) leukemia = system: HL-60(TB) leukemia
HOP-92 NSCLC = system: HOP-92 NSCLC
HS 578T breast = system: HS 578T breast
HT29 colon = system: HT29 colon
IGROV1 ovarian = system: IGROV1 ovarian
K-562 leukemia = system: K-562 leukemia
KM12 colon = system: KM12 colon
LOX IMVI melanoma = system: LOX IMVI melanoma
M14 melanoma = system: M14 melanoma
MALME-3M melanoma = system: MALME-3M melanoma
MCF7 breast = system: MCF7 breast
MDA-MB-231 breast = system: MDA-MB-231 breast
MDA-MB-435 = system: MDA-MB-435
MDA-N = system: MDA-N
MOLT-4 leukemia = system: MOLT-4 leukemia
NCI-H226 lung = system: NCI-H226 lung
NCI-H23 lung = system: NCI-H23 lung
NCI-H460 lung = system: NCI-H460 lung
NCI-H522 lung = system: NCI-H522 lung
NCI/ADR-RES ovarian = system: NCI/ADR-RES ovarian
OVCAR-3 ovarian = system: OVCAR-3 ovarian
OVCAR-4 ovarian = system: OVCAR-4 ovarian
OVCAR-5 ovarian = system: OVCAR-5 ovarian
OVCAR-8 ovarian = system: OVCAR-8 ovarian
PC-3 prostate = system: PC-3 prostate
RPMI-8226 leukemia = system: RPMI-8226 leukemia
RXF 393 renal = system: RXF 393 renal
SF-268 CNS = system: SF-268 CNS
SF-539 CNS = system: SF-539 CNS
SK-MEL-2 melanoma = system: SK-MEL-2 melanoma
SK-MEL-28 melanoma = system: SK-MEL-28 melanoma
SK-MEL-5 melanoma = system: SK-MEL-5 melanoma
SK-OV-3 ovarian = system: SK-OV-3 ovarian
SN12C renal = system: SN12C renal
SNB-19 CNS = system: SNB-19 CNS
SNB-75 CNS = system: SNB-75 CNS
SR leukemia = system: SR leukemia
SW-620 colon = system: SW-620 colon
T-47D breast = system: T-47D breast
TK-10 renal = system: TK-10 renal
U251 CNS = system: U251 CNS
UACC-257 melanoma = system: UACC-257 melanoma
UACC-62 melanoma = system: UACC-62 melanoma
UO-31 renal = system: UO-31 renal
ACHN renal = system: ACHN renal
CCRF-CEM leukemia = system: CCRF-CEM leukemia
HOP-62 NSCLC = system: HOP-62 NSCLC
SF-295 CNS = system: SF-295 CNS

Measured: TGI

CSc1c(C#N)c(O)n(-c2ccc(Cl)cc2)c(=O)c1C#N
98 µM: HOP-92 NSCLC
> 100 µM: 786-0 renal | A498 renal | A549 NSCLC | BT-549 breast | CAKI-1 renal | COLO 205 colon | DU-145 prostate | EKVX NSCLC | HCC-2998 colon | HCT-116 colon | HCT-15 colon | HL-60(TB) leukemia | HS 578T breast | HT29 colon | IGROV1 ovarian | K-562 leukemia | KM12 colon | LOX IMVI melanoma | M14 melanoma | MALME-3M melanoma | MCF7 breast | MDA-MB-231 breast | MDA-MB-435 | MDA-N | MOLT-4 leukemia | NCI-H226 lung | NCI-H23 lung | NCI-H460 lung | NCI-H522 lung | NCI/ADR-RES ovarian | OVCAR-3 ovarian | OVCAR-4 ovarian | OVCAR-5 ovarian | OVCAR-8 ovarian | PC-3 prostate | RPMI-8226 leukemia | RXF 393 renal | SF-268 CNS | SF-539 CNS | SK-MEL-2 melanoma | SK-MEL-28 melanoma | SK-MEL-5 melanoma | SK-OV-3 ovarian | SN12C renal | SNB-19 CNS | SNB-75 CNS | SR leukemia | SW-620 colon | T-47D breast | TK-10 renal | U251 CNS | UACC-257 melanoma | UACC-62 melanoma | UO-31 renal

O=C1C(=O)c2ccccc2C=C1[N+](=O)[O-]
46.4 µM: SK-MEL-5 melanoma
56.8 µM: EKVX NSCLC
54.2 µM: HL-60(TB) leukemia
99.5 µM: SK-MEL-2 melanoma
58.9 µM: UACC-257 melanoma
78.9 µM: MCF7 breast | RXF 393 renal
66.5 µM: MDA-MB-231 breast
69.9 µM: HCT-116 colon
85.2 µM: OVCAR-3 ovarian
80.1 µM: UACC-62 melanoma
31.8 µM: MDA-MB-435
39.2 µM: MDA-N
76.4 µM: NCI/ADR-RES ovarian
86.1 µM: CCRF-CEM leukemia
65.4 µM: MOLT-4 leukemia
> 100 µM: 786-0 renal | A498 renal | A549 NSCLC | ACHN renal | BT-549 breast | CAKI-1 renal | COLO 205 colon | DU-145 prostate | HCC-2998 colon | HCT-15 colon | HOP-62 NSCLC | HOP-92 NSCLC | HS 578T breast | HT29 colon | IGROV1 ovarian | K-562 leukemia | KM12 colon | LOX IMVI melanoma | M14 melanoma | NCI-H226 lung | NCI-H23 lung | NCI-H460 lung | NCI-H522 lung | OVCAR-4 ovarian | OVCAR-5 ovarian | OVCAR-8 ovarian | PC-3 prostate | RPMI-8226 leukemia | SF-268 CNS | SF-295 CNS | SF-539 CNS | SK-MEL-28 melanoma | SK-OV-3 ovarian | SN12C renal | SNB-19 CNS | SNB-75 CNS | SR leukemia | SW-620 colon | T-47D breast | TK-10 renal | U251 CNS | UO-31 renal
